Reference: PubChem BioAssay (NCI)
Several values for one entry are separate records, joined by “and”; a condition that tells them apart may be missing. Equal values may be shown once.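 48-hour exposure; five concentrations; linearly interpolated endpoints. GI50 = concentration required for 50% inhibition of growth. TGI denotes the concentration required for complete inhibition of growth.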

Assays:
Assay in all cases: NCI anticancer screen, dose series, 48 h
T-47D breast = tested on: T-47D breast
SF-295 CNS = tested on: SF-295 CNS
OVCAR-5 ovarian = tested on: OVCAR-5 ovarian
PC-3 prostate = tested on: PC-3 prostate
UACC-257 melanoma = tested on: UACC-257 melanoma
HOP-92 NSCLC = tested on: HOP-92 NSCLC
HS 578T breast = tested on: HS 578T breast
OVCAR-8 ovarian = tested on: OVCAR-8 ovarian
HOP-62 NSCLC = tested on: HOP-62 NSCLC
K-562 leukemia = tested on: K-562 leukemia

SMILES	GI50 (T-47D breast) [µM]	TGI (T-47D breast)	GI50 (SF-295 CNS) [µM]	TGI (SF-295 CNS)	GI50 (OVCAR-5 ovarian) [µM]	TGI (OVCAR-5 ovarian) [µM]	GI50 (PC-3 prostate) [µM]	TGI (PC-3 prostate) [µM]	GI50 (UACC-257 melanoma) [µM]	TGI (UACC-257 melanoma)	GI50 (HOP-92 NSCLC) [µM]	TGI (HOP-92 NSCLC)	GI50 (HS 578T breast) [µM]	TGI (HS 578T breast) [µM]	GI50 (OVCAR-8 ovarian) [µM]	TGI (OVCAR-8 ovarian) [µM]	GI50 (HOP-62 NSCLC) [µM]	TGI (HOP-62 NSCLC) [µM]	GI50 (K-562 leukemia) [µM]	TGI (K-562 leukemia)
CCCCCCCCCCCCCCCC1=NCCN1	2.14	5.65 µM	1.97	3.95 µM	2.26	5.53	2.03	4.24	3.25	9.55 µM	2.15	4.8 µM	2.22	6	2.67	6.92	–	–	–	–
C=C1C(=O)O[C@H]2[C@H]1CC/C(COC(=O)NCc1c[nH]c3ccccc13)=C\CC[C@@]1(C)O[C@@H]21	1.57	4.11 µM	12.1	24.7 µM	3.63	14.4	5.16	18.9	4.25	15.9 µM	1.51	4.31 µM	10.3	43.9	2.2	6.99	11.2	23.7	1.82	12.6 µM
CCN(CC)CCCC(C)Nc1ccnc2cc(Cl)ccc12 (centres undefined)	> 100	> 100 µM and 64.1 µM	–	59.9 µM and > 60.1 µM	–	> 100	98.4	> 100	19.8	35.7 µM and > 62.1 µM	52	> 100 µM and 44.9 µM	> 100	> 100	57.5	> 100	> 100	> 100	22.6	88.2 µM and 32.4 µM
COc1cc2c3cc1Oc1c(OC)c(OC)cc4c1C(=NCC4)Cc1ccc(cc1)Oc1cc(ccc1O)C[C@H]3N(C)CC2	–	40.4 µM	–	43.3 µM	–	> 100	–	42.5	–	29.6 µM	–	29.1 µM	–	63.7	–	32	–	44.7	–	74.1 µM
CN(C)CCCN(CCC1CCCCC1)CCC1CCCCC1	1.57	3.52 µM	1.95	4.51 µM	2.7	7.97	4.47	17.9	0.77	2.82 µM	1	9.7 µM	1.9	4.76	3.12	7.12	6.06	16.3	0.591	–
Cc1ccc2oc(=O)cc(/C(=C3/C=CC=N3)c3ccc[nH]3)c2c1	0.445	7.66 µM	0.215	0.667 µM	0.901	12.7	0.274	1.54	0.711	4.06 µM	0.155	2.57 µM	0.391	4.7	0.304	1.07	0.533	5.53	–	–
O=C1C(=C(C(F)(F)Cl)C(F)(F)Cl)C2CCC1C2 (centres undefined)	–	4.58 µM	–	> 10 µM	–	> 10	–	5.48	–	4.2 µM	–	6.42 µM	–	> 10	–	4.24	–	> 10	–	> 10 µM
Cn1c(=O)c(Oc2ccc(F)cc2F)cc2cnc(NC(C)(C)CO)nc21	13.7	> 25 µM	> 25	> 25 µM	> 25	> 25	> 25	> 25	> 25	> 25 µM	7.44	> 25 µM	> 25	> 25	> 25	> 25	> 25	> 25	> 25	> 25 µM
COC(=O)c1ccc2c(c1)C(=O)c1c-2n(CCCCl)c(=O)c2cc([N+](=O)[O-])ccc12	92	> 100 µM	52	> 100 µM	> 100	> 100	> 100	> 100	> 100	> 100 µM	23.6	90.9 µM	> 100	> 100	> 100	> 100	43.3	> 100	59	> 100 µM
CC1CCN(Cc2ccc(NC(=O)c3cc4ccc5cccnc5c4[nH]3)cc2)CC1	6.81	28.3 µM	1.98	4.45 µM	11.3	35.3	5.1	23.7	–	–	4.76	20.5 µM	4.09	28.3	10.6	29.5	5.27	33.9	2.53	9.07 µM
